Data on six compounds can be found in patent US20090215857A1 (Pfizer Products Inc., priority 2005, published 2009).

Counter-ions that a name gives are not always drawn.

The test system of assay [1] is capsaicin-induced mechanical allodynia. In words: rat model of capsaicin-induced mechanical allodynia. It counts as in vivo. The conditions noted are these: male Sprague-Dawley rats; 10 mg/kg subcutaneously; PWT 1 hour after single dose; mean of eight animals, normalized for vehicle. The protocol:
Compounds of the present invention may be assayed for their ability to alleviate capsaicin-induced mechanical allodynia in a rat (e.g., Sluka (2002) J of Neuroscience, 22(13): 5687-5693). For example, a rat model of capsaicin-induced mechanical allodynia was carried out as follows:
On day 0, male Sprague-Dawley rats (˜150 g) in the dark cycle were placed in suspended wire-bottom cages and allowed to acclimate for 0.5 hour in a darkened, quiet room. The day 0 paw withdrawal threshold (PWT) was determined on the left hind paw by Von Frey hair assessment using the Dixon up and down method. After assessment, the plantar muscle of the right hind paw was injected with 100 μl capsaicin (0.25% (w/v) in 10% ethanol, 10% Tween 80, in sterile saline). On day 6 the PWT of the left hind paw (contralateral from injection site) was determined for each animal. Animals from the day 6 prereads with PWT ≦11.7 g were considered allodynic responders and were regrouped so that each cage had similar mean PWT values. On day 7, responders were dosed subcutaneously with 10 mg compound/kg body weight, or with vehicle alone. The vehicle was phosphate buffered saline containing 2% Cremophor® EL (BASF). The contralateral PWT values were determined at 1 hour after the single dose, with the investigator blinded to the dosing scheme.
For each animal, the day 6 PWT value was subtracted from the 1 hour PWT value to give a delta PWT value that represents the change in PWT due to the 1 hour drug treatment. In addition, the day 6 PWT was subtracted from the day 0 PWT to give the baseline window of allodynia present in each animal.
The mean percent Inhibition of allodynia values (for eight animals assayed for each compound)+/−the standard error of the mean (SEM) are shown in Table 15.

Assay [2] deals with T1, human serotonin transporter (Homo sapiens, UniProt P31645).
T1 construct: expressed in transfected cells; host or cells: HEK-293
In words: hSERT receptor binding ([125I]-RTI-55 radioligand). Conditions: membranes of HEK-293 cells transfected with human serotonin transporter cDNA; 50 pM [125I]-RTI-55; IC50 converted by Cheng-Prusoff; read-out: SERT Ki. The essentials:
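Ki values derive via Cheng-Prusoff from IC50s of displacement of 50 pM [125I]-RTI-55 binding to transfected HEK-293 membranes, 90 min at room temperature in pH 7.4 Krebs-HEPES buffer. Compounds spanned 10^−12 to 10^−5 M, in duplicate; nonspecific binding was set with 10 μM citalopram.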

The target in assay [3] is T2, human norepinephrine transporter (Homo sapiens, UniProt P23975).
T2 construct: expressed in transfected cells; host or cells: HEK-293
In words: hNET receptor binding ([125I]-RTI-55 radioligand). The conditions noted are these: membranes of HEK-293 cells transfected with human norepinephrine transporter cDNA; 50 pM [125I]-RTI-55; IC50 converted by Cheng-Prusoff; read-out: NET Ki. The essentials:
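Membranes from HEK-293 cells expressing human NET were incubated 90 min at room temperature with 50 pM [125I]-RTI-55 and test compound (10^−5M to 10^−12M) in Krebs-HEPES, pH 7.4.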

Assay [4] concerns the target T3, neuronal α-BGTX-insensitive central nicotinic receptor (Rattus norvegicus, UniProt P09483+P12390).
T3 construct: Membrane homogenates of cerebral cortex (800 μg protein) are incubated; from tissue; host or cells: rat cerebral cortex membrane homogenates
The assay is described as follows: [3H]cytisine radioligand binding assay, rat cerebral cortex. The conditions noted are these: 10 μM compound; 1.5 nM [3H]cytisine; rat cerebral cortex membrane homogenates; read-out: Percent inhibition at 10 μM of compound (control radioligand specific binding). As for the experimental part:
Several compounds were evaluated for their affinity for the neuronal α-BGTX-insensitive central nicotinic receptor in the rat cerebral cortex determined in a radioligand binding assay.
Experimental protocol Membrane homogenates of cerebral cortex (800 μg protein) are incubated for 75 min at 4° C. with 1.5 nM [^3H]cytisine in the absence or presence of the test compound (10 μM in a buffer containing 50 mM Tris-HCl (pH 7.4), 120 mM NaCl, 5 mM KCl, 1 mM MgCl2 and 2 mM CaCl2.
Nonspecific binding is determined in the presence of 10 μM nicotine.
Following incubation, the samples are filtered rapidly under vacuum through glass fiber filters (Filtermat B, Wallac) presoaked with 0.3% PEI (polyethyleneimine) and rinsed several times with ice-cold 50 mM Tris-HCl using a 48-sample cell harvester (Mach II, Tomtec). The filters are dried then counted for radioactivity in a scintillation counter (Betaplate 1204, Wallac) using a solid scintillator (Meltilex B/HS, Wallac).
The results are expressed as a percent inhibition of the control radioligand specific binding.
The standard reference compound is nicotine, which is tested in each experiment at several concentrations to obtain a competition curve from which its IC50 is calculated.

T2 sequence (P23975 whole entry): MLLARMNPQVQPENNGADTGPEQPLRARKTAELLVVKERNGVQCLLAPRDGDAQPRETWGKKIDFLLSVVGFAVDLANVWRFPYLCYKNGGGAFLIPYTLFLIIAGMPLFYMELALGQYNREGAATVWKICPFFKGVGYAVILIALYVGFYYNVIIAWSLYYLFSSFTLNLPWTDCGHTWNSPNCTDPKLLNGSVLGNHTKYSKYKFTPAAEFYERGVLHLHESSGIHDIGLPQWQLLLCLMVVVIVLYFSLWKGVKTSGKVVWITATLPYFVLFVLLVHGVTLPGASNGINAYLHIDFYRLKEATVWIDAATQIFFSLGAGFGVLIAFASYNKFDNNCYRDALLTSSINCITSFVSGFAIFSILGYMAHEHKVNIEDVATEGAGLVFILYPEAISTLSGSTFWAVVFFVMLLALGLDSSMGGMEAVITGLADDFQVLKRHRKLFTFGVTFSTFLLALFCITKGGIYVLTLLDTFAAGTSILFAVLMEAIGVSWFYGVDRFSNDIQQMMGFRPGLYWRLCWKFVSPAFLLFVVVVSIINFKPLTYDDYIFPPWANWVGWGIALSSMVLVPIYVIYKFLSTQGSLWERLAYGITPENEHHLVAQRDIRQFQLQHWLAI
T1 sequence (P31645 whole entry): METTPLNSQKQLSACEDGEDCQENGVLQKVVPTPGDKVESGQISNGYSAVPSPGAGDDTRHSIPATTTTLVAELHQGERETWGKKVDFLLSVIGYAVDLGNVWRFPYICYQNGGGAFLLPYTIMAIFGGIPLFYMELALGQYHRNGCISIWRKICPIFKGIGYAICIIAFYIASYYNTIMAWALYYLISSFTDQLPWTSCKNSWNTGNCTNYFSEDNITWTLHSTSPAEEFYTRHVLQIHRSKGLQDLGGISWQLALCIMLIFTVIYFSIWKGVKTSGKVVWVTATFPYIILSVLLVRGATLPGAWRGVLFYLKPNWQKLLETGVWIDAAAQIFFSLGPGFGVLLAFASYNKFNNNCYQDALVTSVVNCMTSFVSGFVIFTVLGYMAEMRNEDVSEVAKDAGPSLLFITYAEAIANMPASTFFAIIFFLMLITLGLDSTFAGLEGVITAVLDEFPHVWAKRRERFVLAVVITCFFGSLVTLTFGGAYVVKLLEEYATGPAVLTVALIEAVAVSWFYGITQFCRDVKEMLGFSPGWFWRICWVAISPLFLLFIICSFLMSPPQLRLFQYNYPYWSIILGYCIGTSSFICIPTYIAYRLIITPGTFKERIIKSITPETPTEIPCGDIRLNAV
T3 sequence (P09483 31-630): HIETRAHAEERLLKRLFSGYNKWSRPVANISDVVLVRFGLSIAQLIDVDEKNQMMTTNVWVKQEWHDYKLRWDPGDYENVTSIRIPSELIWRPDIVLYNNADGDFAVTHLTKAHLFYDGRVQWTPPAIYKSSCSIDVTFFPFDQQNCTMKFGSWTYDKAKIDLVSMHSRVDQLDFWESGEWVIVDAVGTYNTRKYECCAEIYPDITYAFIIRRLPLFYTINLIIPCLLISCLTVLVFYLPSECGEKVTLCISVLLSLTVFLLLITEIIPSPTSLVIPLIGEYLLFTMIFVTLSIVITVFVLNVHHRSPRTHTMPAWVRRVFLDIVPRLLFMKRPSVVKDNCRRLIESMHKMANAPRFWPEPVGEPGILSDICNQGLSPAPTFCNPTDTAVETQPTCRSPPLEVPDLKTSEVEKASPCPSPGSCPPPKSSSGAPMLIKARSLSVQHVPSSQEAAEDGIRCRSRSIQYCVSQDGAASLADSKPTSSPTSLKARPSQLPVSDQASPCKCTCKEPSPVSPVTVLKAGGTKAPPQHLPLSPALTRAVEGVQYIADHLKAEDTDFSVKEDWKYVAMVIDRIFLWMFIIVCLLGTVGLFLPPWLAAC
T3 sequence (P12390 25-500): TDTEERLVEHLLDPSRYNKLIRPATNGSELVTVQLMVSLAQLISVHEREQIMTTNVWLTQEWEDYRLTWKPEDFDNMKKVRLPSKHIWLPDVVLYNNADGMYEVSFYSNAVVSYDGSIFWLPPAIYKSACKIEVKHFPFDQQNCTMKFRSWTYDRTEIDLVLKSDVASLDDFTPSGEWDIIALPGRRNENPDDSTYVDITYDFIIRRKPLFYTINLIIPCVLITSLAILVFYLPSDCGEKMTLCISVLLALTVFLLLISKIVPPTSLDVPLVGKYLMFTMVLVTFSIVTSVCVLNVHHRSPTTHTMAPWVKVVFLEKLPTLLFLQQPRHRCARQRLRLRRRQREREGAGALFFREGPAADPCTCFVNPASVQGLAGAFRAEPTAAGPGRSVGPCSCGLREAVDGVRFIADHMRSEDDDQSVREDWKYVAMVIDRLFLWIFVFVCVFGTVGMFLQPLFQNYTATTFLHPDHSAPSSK

What is called Ki is a dissociation constant, usually derived from enzyme kinetics or from competition with a known ligand. Consider `Fc1ccc(-c2ccccc2CO[C@H]2CCNC2)c(F)c1` [Example A-1, (S)-3-(2′,4′-Difluoro-biphenyl-2-ylmethoxy)-pyrrolidine fumarate], for which the “% INHIBITION +/− SEM (inhibition of allodynia)” value (from here on “% INHIBITION +/− SEM”) in assay [1] was 40.90 +/− 10.2%. The inhibitory constant (Ki) is 103 nM in assay [2] and 10.9 nM in assay [3].

Usually inhibition stands for the drop in the measured response relative to a control, in per cent. As for `FC(F)(F)c1cccc(-c2ccccc2CO[C@H]2CCNC2)c1` [Example A-18, (S)-3-(3′-Trifluoromethyl-biphenyl-2-ylmethoxy)-pyrrolidine hydrochloride], the figures for the Ki in assay [2] and in assay [3] were 13 nM and 103 nM, respectively. Besides, the inhibition at 10 µM in assay [4] was at most 21%.

With `Fc1cc(F)cc(-c2ccccc2CO[C@H]2CCNC2)c1` [Example A-17, (S)-3-(3′,5′-Difluoro-biphenyl-2-ylmethoxy)-pyrrolidine hydrochloride], the Ki in assay [2] was 15.1 nM; in assay [3], 93.5 nM. For the same compound, the inhibition at 10 µM in assay [4] was at most 21%.

As to `Fc1cccc(-c2ccccc2CO[C@H]2CCNC2)c1F.O=C(O)/C=C/C(=O)O` [Example A-6, (S)-3-(2′,3′-Difluoro-biphenyl-2-ylmethoxy)-pyrrolidine fumarate], in assay [1], the “% INHIBITION +/− SEM” value was 66.20 +/− 7.8%. In addition, the figures for the Ki in assay [2] and in assay [3] were 65.6 nM and 12.9 nM, respectively.

As to `Cl.Fc1ccc(-c2cccc(F)c2F)c(CO[C@H]2CCNC2)c1` [Example A-4, (S)-3-(4,2′,3′-Trifluoro-biphenyl-2-ylmethoxy)-pyrrolidine hydrochloride], in assay [1], the “% INHIBITION +/− SEM” value is given as 30.20 +/− 1.8%. Further, the Ki in assay [2] amounted to 139 nM; in assay [3], 11.2 nM.

Consider `Fc1ccc(-c2ccc(F)cc2CO[C@H]2CCNC2)c(F)c1.O=C(O)/C=C/C(=O)O` [Example A-3, (S)-3-(4,2′,4′-Trifluoro-biphenyl-2-ylmethoxy)-pyrrolidine fumarate], for which the “% INHIBITION +/− SEM” value in assay [1] is reported as 17.40 +/− 9.9%. The Ki came to 134 nM in assay [2] and 10.8 nM in assay [3].
